The test system of assay [1] is APP/PS1 model group. The assay is described as follows: In vivo electrophysiology and LTP analysis (hippocampus slice). Also noted: species or system mice. The note with it: hippocampus slice CA1, after pairing stimuli, treated APP/PS1 model group. As for the experimental part:
A hippocampus slice was prepared from adult mice to examine the CA1 circuit from the cross-sectional schaffer collateral (SC) input in the hippocampus slice ([…] thickness). Briefly, after anesthetizing the mice with isoflurane, the brains were quickly cooled by transcardiac perfusion with ice-cold cross-cerebrospinal fluid (CSF). After the brain was removed, the brains were stored in ice-cold sucrose-artificial CSF. A coronal section was cultured in artificial CSF at a temperature of 35° C. for 30 minutes, and cultured in artificial CSF at room temperature (23° C. to 25° C.) for 1 to 4 hours before being transferred to the recording chamber. […]
LTP experiments were performed at 27° C. to 29° C. […] Stimulation was applied to the shaper-side branch (SC) pathway using a concentrated bipolar electrode located at […] from the soma of the recorded cells. […] In the LTP experiment, baseline EPSCs were measured for 3 min before applying the pairing stimuli (2 Hz, 2-minute stimulation, and post-synaptic depolarization to 0 mV). […]

Assay [2] concerns APP/PS1 model mice. Kind of assay: Western blot analysis of cortex and hippocampus of APP/PS1 model mice. The class given is in vivo. As for the experimental part:
Male C57BL/6J wild type mice and double transgenic B6.Cg-Tg (APPswe, PSENdE9) 85Dbo Mmjax (APP/PS1) AD-model mice were obtained from Jackson Laboratories (Bar Harbor, Me., USA). The brains of the double transfected mice express Swedish mutation-containing chimeric mouse-human amyloid precursor protein (Mo/HuAPP695swe) and mutant human presenilin 1 protein (PS1-dE9). The mice were fed with an unlimited supply of food and water at an animal breeding ground of a university at a temperature of 23° C., at the relative humidity of 60±10% and in the black and light cycle of 12 h/12 h. […] The maintenance and treatment for mice were performed according to the guidelines of the Animal Ethics Committee (IACUC) issued by Department of Biology, Division of Applied Life Science of Gyeongsang National University in Korea. Experiments according to the present disclosure were conducted according to the guidelines approved by the guidelines of the Animal Ethics Committee (IACUC) issued by Department of Biology, Division of Applied Life Science of Gyeongsang National University in Korea (approval ID: 125).
The novel peptide according to the present disclosure was dissolved in bi-deionized distilled water, and administered while being finally included in physiological saline. The novel peptide according to the present disclosure was intraperitoneal injection (IP) administered to APP/PS1 and wild-type (WT) mice in a dose of 5 mg/kg/day at an interval of 2.5 days for 30 days to 45 days. Wild-type mice and APP/PS1 transfected mice were treated with the same volume of physiological saline, and after behavioral analysis, the animal models were sacrificed for further biochemical and immunohistochemical analysis.
Protein concentrations were measured by using a BIORAD protein assay kit (BIORAD LABORATORIES, CA, USA). Equal amounts of protein (15 to 25 μg) were electrophoresed under the same experimental conditions using 4 to 12% BLOT™ minigel and MES SDS electrophoresis buffer (running buffer) 1×(NOVEX, LIFE TECHNOLOGIES, Kiryat Shmona, Israel), and a broad range prestained protein marker (GANGNAM STAIN™, Intron Biotechnology) was used as the control for the molecular size. To reduce nonspecific binding, the membranes used were blocked with 5% (w/v) skim milk and reacted with a primary antibody (a 1:1000 dilution) overnight at 4° C. After an appropriate reaction with a horseradish peroxidase (HRP)-binding secondary antibody, proteins were detected by using an ECL detection reagent (AMERSHAM PHARMECIA BIOTECH, Uppsala, Sweden) according to the manufacturer's instructions. The X-ray film was scanned and the optical density of the band was analyzed using a densitometry using a computer-based Sigma Gel program, version 1.0 (SPSS, Chicago, Ill., USA).
For use as the primary antibody, anti-amyloid β (Aβ), anti-APP, anti-AdipoR1 (Adiponectin receptor 1), anti-phospho-AMPK, anti-SNAP-25 (Synaptosomal-Associated Protein 25), anti-SAP-102, anti-Syanpatophysin, phospho-Tau (Ser 413), anti-p-mTOR, anti-p-ULK1, and anti-β-actin were used.

The mark [3] stands for this setting: hippocampus of APP/PS1 mice, 9 months and 12 months.
Where [4] appears, read: hippocampus, 9 months and 12 months.
Where [5] appears, read: hippocampus, 9 months and 12 months after treatment.

For “RGPCG (adiponectin receptor-activating peptide) [5AA1]”, the “level of EPSC enhancement (LTP)” value in assay [1] is “almost the same as that of the normal group”. Moreover, in assay [2] (APP/PS1 mice), the “expression of p-ULK1 protein” value was “suppression of the expression” and the “expression of p-mTOR protein” value was “suppression of the expression”. Also, in assay [2] (cortex of APP/PS1 mice), the “APP in the cortex” value is reported as “statistically significantly reduced” and the “amyloid-β oligomer (Aβ oligomer) in the cortex” value is given as “statistically significantly reduced”. Also, in assay [2] (hippocampus of APP/PS1 mice), the “expression level of p-Tau (Ser404)” value is “remarkably decreased levels” and the “expression level of p-Tau (Ser413)” value is listed as “remarkably decreased levels”. Further, in assay [2] (setting [3]), the “expression level of AdipoR1” value is listed as “remarkably increased levels”, the “expression level of SIRT-1” value is recorded as “remarkably increased levels” and the “expression level of pAMPK” value is given as “remarkably increased levels”. Besides, in assay [2] (setting [4]), the “expression level of AAP in the hippocampus” value was “decreased” and the “expression level of Aβ in the hippocampus” value was “decreased”. In assay [2] (setting [5]), the “expression level of SAP-102” value is listed as “remarkably increased levels”, the “expression level of SNAP-25” value is listed as “remarkably increased levels” and the “expression level of Synaptophysin” value was “remarkably increased levels”.

Values taken from US10618937B2, “Method of treating Alzheimer's disease” (INDUSTRY-ACADEMIC COOPERATION FOUNDATION GYEONGSANG …, priority 2016, dated 2020).
